# Measured values taken from patent US5420132A, “Substituted benzodioxins” (Adir et Compagnie, priority 1993, dated 1995).
# Tests used:
# lipoxygenase = assay: Measurement of lipoxygenase activities (B4 leukotriene release, calcium ionophore A 23 187); assay type: cell-based; settings: 10 μM; rabbit granulocytes; average of 3
# Method: Measurement of lipoxygenase activities The measurements are carried out on rabbit granulocytes. The isolated granulocytes are stimulated in vitro by the calcium ionophore A 23 187. The B4 leukotrienes released in the extracellular medium are measured by Radio Immuno Assay (RIA). The results (average of 3 independent measurements) are expressed as a percentage inhibition compared with the control.
# [1] = system: platelet aggregation (rabbit plasma rich in platelets); assay: Measurement of antiaggregation activity (sodium arachidonate induced); assay type: cell-based; settings: Oryctolagus cuniculus, sodium arachidonate (50 μ/ml), read-out: Minimum active concentration, inhibition of maximum non-reversible platelet aggregation
# Method: Measurement of antiaggregation activity
# In that study, the compounds of the invention (100 μ/ml) were tested with the aim of quantifying their ability to inhibit the maximum non-reversible platelet aggregation (rabbit plasma rich in platelets) induced by sodium arachidonate (50 μ/ml). Thus the minimum active concentration for the compound of Example 1 is 20 μM.
# [2] = Antihypoxic activity in vivo (time until first gasps); parameters: species or system mice (Swiss CD 1); settings: 30 minutes before hypoxia, control 36 ± 4
# Method: Male mice (Swiss CD 1 ) weighing from 25 to 30 g are, before any experiment, housed for one week under conditions customary for animals (20°-22° C., 55% humidity, light/darkness cycle 12/12, commercial feed and water as desired). The mice are placed in a box (7×5×5 cm) in which an atmosphere poor in oxygen is created by passing through a stream of air (96% N2, 4% O2, 12 l/min). The time taken until the first signs of suffocation (or "gasps") occur is measured. The mice receive a dose of the compounds to be tested by the intraperitoneal route 30 minutes before the hypoxia is induced. Vincamine is used as the reference drug.
# thoracic aorta of rats = assay: Anticalcic activity (contraction induced by potassium chloride); parameters: species or system male Wistar rats; settings: Rattus norvegicus; 60 mM KCl; 2 preparations, 8 concentrations; read-out: IC50, inhibition of thoracic aorta contraction induced by potassium chloride
# Method: The anticalcic activity was studied in the thoracic aorta of male Wistar rats. Once they have been introduced into experimental vessels containing a physiological solution, the vascular rings are subjected to an initial tension of 2 g. The preparations are then placed in the presence of a hyperpotassic solution (60 mM of potassium chloride) in order to obtain a sustained contractile response. Increasing concentrations of the product being tested are then added for the period necessary to obtain a stable effect.
# Each compound of the invention is thus tested in 2 preparations at 8 concentrations (10^-8 M to 3×10^-5 M) to obtain a concentration-effect curve and determine the IC50.
# native human LDLs = assay: Protective activity against LDL oxidation (electrophoretic method, FPLC, Cu2+ induced); assay type: biochemical; settings: 10 μM; with Cu++; 24 hours
# Method: Study of the protective activity against LDL oxidation (electrophoretic method)
# The capacity of the compounds of the invention to decrease the proportions of oxidised LDLs was measured by incubating a preparation comprising native human LDLs, a Cu^2+ free radical generator, and the compounds to be tested for 24 hours. The oxidation products are determined by FPLC (Fast Protein Liquid Chromatography) in accordance with the method described by B. Vedie et al., Journal of Lipid Research, 32, 1359-1369, (1991). By that method it was possible to identify 5 peaks corresponding to different degrees of LDL oxidation. Peaks A and B correspond to the native forms of LDL and peaks C, D and E correspond to the different states of oxidation of the LDLs (peak E corresponding to the most oxidised form). The results are expressed as a percentage of the LDLs corresponding to those different states of oxidation.
# [3] = system: Human red blood corpuscles; assay: Measurement of haemolysis induced by AAPH; assay type: cell-based; settings: Erythrocyte, 0.5 h, 10^-5 M, 30 minutes at 37° C.
# Method: Measurement of haemolysis induced by AAPH
# Human red blood corpuscles are placed for a period of 30 minutes at 37° C. in the presence of AAPH, which generates free radicals at a constant rate, and in the presence or absence of the compounds being studied. The optical density of the supernatant is measured at 403 nm compared with the control without AAPH. The percentage inhibition of haemolysis is calculated by comparison with the 100% haemolysis obtained for the AAPH control.
# [4] = Hypolipaemic activity in hypercholesterolaemic mice; assay type: in vivo; settings: 100 mg/kg p.o.; serum
# Method: Groups each comprising 6 mice are rendered hypercholesterolaemic by a diet that is high in cholesterol and in cholic acid for 7 days. The compounds of the invention are administered p.o. (100 mg/kg) on the 6th and 7th day (half the dose being administered on day 6 and the other half on day 7). The animals are then left without food and drink for one night. The reduction in the concentration of cholesterol in the serum compared with hypercholesterolaemic control mice is then evaluated, as is also the reduction in concentration of lipoproteins (corresponding to the LDL-VLDL fractions), after precipitation by the addition of heparin to the serum, in the same hypercholesterolaemic mice compared with the control animals.
# 5-HT2 receptors = assay: Serotoninergic activity (competition with [3H]ketanserine); assay type: binding, rat (male Wistar, cerebral cortex membranes); settings: 10 μM (n=3); [3H]ketanserine 0.5 nM, 40 min/25° C.
# Method: The experiments are carried out on membranes prepared from the cerebral cortex of male Wistar rats (CERJ, le Genest St Isle). The binding measurements are carded out using ketanserine as reference compound. The conditions of the experiment are summarised below:
# After incubation, the membranes are quickly filtered. The filtrates are then transferred to flasks containing scintillation liquid and the bound radioactivity is determined by a liquid scintillation counter (LS6000, Beckman). The affinity of the compounds of the invention for the 5-HT2 receptors is evaluated, at the concentration 10 μM (n=3), using competition experiments.
compound,measurement,setting,value
"O=C(C1=COc2cc(O)ccc2O1)N1CCN(C(c2ccc(F)cc2)c2ccc(F)cc2)CC1 [Example 1, 6-HYDROXY-2-{4-[BIS(4-FLUOROPHENYL)METHYL]PIPERAZIN-1-YLCARBONYL}-1,4-BENZODIOXIN]",Inhibiting activity (B4 leukotriene release),lipoxygenase,62%
same,minimal effective concentration,[1],20 µM
same,Time until the first gasps occur,"[2]; 2,5 mg/kg i.p.",108 s
same,IC50,thoracic aorta of rats,500 nM
same,"LDL form B separated by FPLC (native form), percentage of LDLs",native human LDLs,95%
same,"LDL oxidised form C separated by FPLC, percentage of LDLs",native human LDLs,5%
same,inhibition at 10 µM,[3],62%
"O=C(C1=COc2ccc(O)cc2O1)N1CCN(C(c2ccc(F)cc2)c2ccc(F)cc2)CC1 [Example 2, 7-HYDROXY-2-{4-[BIS(4-FLUOROPHENYL)METHYL]PIPERAZIN-1-YLCARBONYL}-1,4-BENZODIOXIN]",inhibition at 10 µM,[3],100%
"O=C(C1COc2cc(O)ccc2O1)N1CCN(C(c2ccc(F)cc2)c2ccc(F)cc2)CC1 (centres unmarked) [Example 3, 6-HYDROXY-2-{4-[BIS(4-FLUOROPHENYL)METHYL]PIPERAZIN -1-YLCARBONYL}-2,3-DIHYDRO-1,4-BENZODIOXIN]",inhibition at 10 µM,[3],88%
"O=C(Nc1ccccc1)C1=COc2cc(O)ccc2O1 [Example 10, 6-HYDROXY-2-ANILINOCARBONYL-1,4-BENZODIOXIN]",Time until the first gasps occur,"[2]; 2,5 mg/kg i.p.",97 s
same,inhibition at 10 µM,[3],100%
"O=C(Nc1ccccc1)C1COc2cc(O)ccc2O1 (centres unmarked) [Example 11, 6-HYDROXY-2-ANILINOCARBONYL-2,3-DIHYDRO-1,4-BENZODIOXIN]",inhibition at 10 µM,[3],100%
"O=C(Nc1ccccc1)C1COc2ccc(O)cc2O1 (centres unmarked) [Example 12, 7-HYDROXY-2-ANILINOCARBONYL-2,3-DIHYDRO-1,4-BENZOP DIOXIN]",inhibition at 10 µM,[3],100%
"O=C(Nc1ccccc1)C1=COc2ccc(O)cc2O1 [Example 13, 7-HYDROXY-2-ANILINOCARBONYL-1,4-BENZODIOXIN]",inhibition at 10 µM,[3],100%
"COc1ccc(CN2CCN(C(=O)C3COc4ccc(O)cc4O3)CC2)c(OC)c1OC (centres unmarked) [Example 17, 7-HYDROXY-2-[4-(2,3,4-TRIMETHOXYBENZYL)PIPERAZIN-1-YLCARBONYL]-2,3-DIHYDRO- 1,4-BENZODIOXIN]",inhibition at 10 µM,[3],100%
"Oc1ccc2c(c1)OC=C(CN1CCN(C(c3ccc(F)cc3)c3ccc(F)cc3)CC1)O2 [Example 58, 6-HYDROXY-2-{4-[BIS-(4-FLUOROPHENYL)METHYL]PIPERAZIN-1- YLMETHYL}-1,4-BENZODIOXIN]",Reduction in the LDL-VLDL fraction,[4],35%
same,Reduction in the total cholesterol,[4],33%
same,"Inhibiting activity, 5-HT2 receptor binding",5-HT2 receptors,79%
same,IC50,thoracic aorta of rats,600 nM
"CC[C@]12CCCN3CCc4c(n(c5ccccc45)[C@@](O)(C(=O)OC)C1)[C@@H]32 [Vincamine, reference compound]",Time until the first gasps occur,[2]; 20 mg/kg i.p.,147 ± 14 s
same,Time until the first gasps occur,"[2]; 2,5 mg/kg i.p.",inactive
"CC(C)(Sc1cc(C(C)(C)C)c(O)c(C(C)(C)C)c1)Sc1cc(C(C)(C)C)c(O)c(C(C)(C)C)c1 [probucol, reference compound]","LDL oxidised form D separated by FPLC, percentage of LDLs",native human LDLs,80%
same,"LDL oxidised form E (most oxidised) separated by FPLC, percentage of LDLs",native human LDLs,20%
